Measured values reported in paper PMC12458545, “Repurposing a Detrimental Antibody Epitope as Targeted Therapeutics for Sepsis and Rheumatoid Arthritis” (Research Square, 2025).
Entries after “also recorded” stand apart in the source; their conditions may differ.

Legend:
[1] = tested on: sepsis-induced systemic cytokines and chemokines; test: serum cytokines/chemokines in CLP sepsis, Cytokine Antibody Arrays; type: in vivo, Balb/C mice; conditions: P2–1 0.1 or 1.0 mg/kg i.p. at 2 h and 20 h post-CLP; blood at 24 h
Protocol: Experimental sepsis was induced in Balb/C mice via cecal ligation and puncture (CLP) as previously described,[30],[37]. […] Briefly, mice were anesthetized intramuscularly with ketamine (75 mg/kg, Henry Schein Animal Health, Dublin, Ohio) and xylazine (10 mg/kg, Sigma-Aldrich) before a midline abdominal incision was made in the lower left abdomen. The cecum was ligated with a 4–0 silk suture at 50% of its length from the distal end, and punctured twice with a 21-gauge needle to induce moderate to severe sepsis. The cecum was returned to the abdominal cavity, and the incision was closed in layers. Approximately 30 min post-CLP, animals received imipenem/cilastatin (0.5 mg/mouse, Primaxin, Merck & Co., Inc.) and 1.0 mL of sterile saline for fluid resuscitation. Animals were randomized to control vehicle and experimental groups, administered P2 or P2–1 intraperitoneally at indicated doses and time points, and monitored for survival rates. To elucidate P2–1’s protective mechanisms, a separate group of Balb/C mice underwent CLP and received P2–1 (1.0 mg/kg) at 2 h and 20 h post-CLP. At 24 h post-CLP, animals were euthanized to collect blood and measure serum cytokines and chemokines using murine Cytokine Antibody Arrays.
(§1) Levels of cytokines and chemokines in mouse serum and joint tissue lysates, or human PBMC culture supernatants were determined using murine or human Cytokine Antibody Arrays (e.g., Cat. No. M0308003 or Cat. No. AAH-CYT-3–4, RayBiotech Inc., Norcross, GA, USA) as previously described,[30],[86],[87]. Serum samples were collected from mice at 24 h post-CLP. The soft tissue of the hindpaw and ankle joints was carefully collected using a previously described protocol. Briefly, 0.5 g of fresh soft tissue was cut into 3 mm pieces, and mixed with 400 μL of a hypertonic solution (500 mL PBS with 4.5 g NaCl and 2× protease inhibitor cocktail) in a 10 mL syringe. Mechanical extrusion, involving 30 rapid back-and-forth movements of the plunger, was then performed. The expelled extracellular fluid was collected, immediately aliquoted, and stored at −20°C until analysis. Cell-conditioned medium was collected from PBMC cultures after 16 h of stimulation. Arrays were performed according to the manufacturer’s protocol, followed by chemiluminescent detection and densitometric quantification as previously described,[30].

human PBMCs [2] = test: RNA-seq of HMGB1-stimulated PBMCs; type: cell-based; conditions: for other HMGB1-induced gene expression (cytokines, chemokines) (words): P2–1 5.0 or 10.0 μg/ml with HMGB1
Protocol: (§2) Human blood was purchased from the New York Blood Center (Long Island City, NY, USA), and PBMCs were isolated by density gradient centrifugation through Ficoll (Ficoll-Paque PLUS) as previously described,[30]. PBMCs were cultured in RPMI-1640 supplemented with 10% human serum, 2 mM L-glutamine, 100 U/mL penicillin, and 100 μg/mL streptomycin (all from Invitrogen). For experiments, PBMCs were stimulated with recombinant human HMGB1 (0.5 or 2.0 μg/ml) for 16 hours, either alone or in combination with P2–1 at 5.0 or 10.0 μg/ml. Cell-free supernatants were collected for analysis of cytokines/chemokines levels by Cytokine Antibody Arrays, or pCTS-L levels by Western blotting analysis as described.
Total RNA was isolated from human PBMCs stimulated with HMGB1 in the absence or presence of P2–1 (5.0 or 10.0 μg/ml) using the RNeasy Mini Kit (Qiagen) according to the manufacturer’s instructions. RNA quantity and quality were assessed using a NanoDrop spectrophotometer and an Agilent Bioanalyzer. cDNA libraries were prepared using the TruSeq RNA Library Prep Kit v2 (Illumina) and sequenced on an Illumina NovaSeq 6000 platform to generate 100 bp paired-end reads. Raw sequencing reads were quality-checked using FastQC, trimmed with Trimmomatic, and aligned to the human reference genome (GRCh38) using HISAT2. Gene counts were quantified using StringTie and DESeq2 was used for differential gene expression analysis. Volcano plots and heatmaps were generated using ggplot2 and pheatmap packages in R, respectively. Genes with an adjusted P-value < 0.05 and a |log2-fold change| > 1 were considered differentially expressed.

human PBMCs [3] = test: HMGB1-induced cytokine/chemokine secretion, Cytokine Antibody Arrays; type: cell-based; conditions: P2–1 5 or 10 μg/ml, HMGB1 0.5 or 2.0 μg/ml, 16 h
Protocol: as §2, §1

human PBMCs [4] = test: HMGB1-induced pCTS-L secretion, Western blot; type: cell-based; conditions: P2–1 5 or 10 μg/ml, HMGB1 0.5 or 2.0 μg/ml, 16 h, n = 4 independent experiments
Protocol: as §2
Cell-conditioned medium from human PBMC cultures was collected, and concentrated using Amicon Ultra Centrifugal Filters. Equal volumes of conditioned medium, representing equivalent numbers of cells, were resolved on sodium dodecyl sulfate (SDS)-polyacrylamide gels and transferred to polyvinylidene difluoride (PVDF) membranes. After blocking with 5% nonfat milk in Tris-buffered saline with 0.1% Tween 20 (TBST), membranes were probed with a home-made primary monoclonal antibody against pCTS-L (e.g., mAb2, 1:1000) overnight as previously described. After washing, membranes were incubated with a horseradish peroxidase-conjugated secondary antibody. Protein bands were visualized using enhanced chemiluminescence (ECL) substrate (Pierce) and detected with a chemiluminescence imaging system (e.g., Bio-Rad ChemiDoc MP). The relative levels of specific proteins were determined using the UN-SCAN-IT Gel Analysis Software Version 7.1 (Silk Scientific Inc., Orem, UT, USA) and expressed in arbitrary units (AU).

water solubility = type: physicochemical

For “54-TKVH(Nle)KSFLAFQTKT-69 [P2–1, water-soluble derivative of TN peptide P2 with Met to Norleucine and Cys to Ser substitutions]”, the sepsis-induced systemic inflammation [1] was “significantly attenuated”, the “serum BLC/CXCL13” value [1] was “significantly reduced” and the “serum G-CSF” value [1] was “significantly reduced”. The “serum IL-6” value [1] was “significantly reduced”, the “serum KC/GRO-α/CXCL1” value [1] was “significantly reduced” and the “serum MCP-1/CCL2” value [1] was “significantly reduced”. For the same substance, the “serum MIP-1γ/CCL9/10” value [1] was “significantly reduced”, the “serum MIP-2/GRO-β/CXCL3” value [1] was “significantly reduced” and the “serum sTNFRI” value [1] was “significantly reduced”. For the same substance, the “Ctsl mRNA upregulation (fold)” value (human PBMCs [2]; HMGB1 + P2–1 group, three independent donors, mean ± SEM) was 2.4 ± 0.1 fold, the “HMGB1-induced Ctsl mRNA upregulation” value (human PBMCs [2]; P2–1 5.0 or 10.0 μg/ml) was “moderately but significantly reduced HMGB1-induced Ctsl mRNA upregulation” and the “other HMGB1-induced gene expression (cytokines, chemokines) (words)” value (human PBMCs [2]) was “did not broadly reverse HMGB1-induced transcriptional changes for most genes; also recorded: not significantly affecting the expression of other HMGB1-induced cytokines and chemokines”. The “other HMGB1-induced gene expression (cytokines, chemokines) (words)” value (human PBMCs [2]; listed as P2-1) was “does not induce”, the “HMGB1-induced cytokine/chemokine secretion (words)” value (human PBMCs [3]) was “did not affect the secretion of these HMGB1-induced cytokines and chemokines; also recorded: did not broadly inhibit the secretion of these HMGB1-induced cytokines and chemokines” and the “HMGB1-induced cytokine/chemokine secretion (words)” value (human PBMCs [3]; listed as P2-1) was “does not broadly inhibit”. The “HMGB1-induced pCTS-L secretion” value (human PBMCs [4]) was “dose-dependently abrogated HMGB1-induced pCTS-L secretion; also recorded: striking and dose-dependent suppression”, the “HMGB1-induced pCTS-L secretion” value (human PBMCs [4]; listed as P2-1) was “inhibitory effect” and the water solubility (water solubility) was “good water solubility”.
